For the assay, the target named is T1, 14-3-3 protein beta/alpha (YWHAB) (Homo sapiens, UniProt P31946).
T1 construct: endogenous in cells; host or cells: human blood leukocytes, labelled live
The experiment in a line: Photoaffinity labeling pull-down (Data S1). Type of assay: binding. Conditions: Comparison PALP1_NA11-PALP1. The protocol:
Buffy coats (100 mL) were diluted with ice-cold water (540 mL) for 30 s to lyse red blood cells. Following addition of 10 x HBSS buffer (50 mL) leukocytes were pelleted for 3 min at 300 x g, then washed twice in D-PBS and resuspended in RPMI medium. Cells (2 × 10^7) were plated on 15-cm dishes in DMSO vehicle, 1 μM PALP1 or 1 μM PALP6 for 30 min at 37°C. For competition, 10 μM NA-11 was added for 15 min, and then 1 μM PALP1 was added for an additional 30 min. To crosslink the photoaffinity probe, cells were UV-irradiated (High intensity mercury spot lamp, 100W, 365 nm, UVP) in RPMI for 5 min on ice. Cells were lysed in 200 μL 10 mM Tris pH 7.5, 150 mM NaCl, 1% NP-40, 2.5 mM MgCl2, 0.5 mM CaCl2, 2% glycerol, 10 μg/mL DNase-I, and 1 x EDTA-free Protease inhibitor cocktail. Lysates from 5 plates for each condition were pooled and incubate 10 min on ice.
Biotin-DADPS tagging, biotin-streptavidin affinity purification, and on-bead digestion were performed as described ([Hewings et al., 2018]). Briefly, lysates were cleared by centrifugation and the lysate concentration adjusted to 5 mg/mL. Streptavidin Ultralink Resin (100 μL of 50% slurry, Pierce) was washed twice with PBS and mixed with 1 mL of lysate for 30 min at room temperature. […]
For the classical TPP, quantitative data from each temperature were used to generate a thermal titration curve and calculate a melting point. […]

T1 sequence (P31946 whole entry): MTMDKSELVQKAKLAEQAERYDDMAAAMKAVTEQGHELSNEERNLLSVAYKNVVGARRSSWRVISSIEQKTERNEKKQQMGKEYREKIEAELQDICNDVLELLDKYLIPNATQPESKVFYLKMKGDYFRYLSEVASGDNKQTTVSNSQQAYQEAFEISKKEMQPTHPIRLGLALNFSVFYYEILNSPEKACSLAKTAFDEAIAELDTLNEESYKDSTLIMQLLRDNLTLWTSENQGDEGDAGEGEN

With `CC(=O)Nc1ccc2c(c1)OCc1cc(-c3ccccc3C#CCCCO)nn1C2` [NA-11], the log2FC worked out at 0.13.
